# Literature values as cited in patent publication US20130281512A1, “AGENTS FOR TREATING DISORDERS INVOLVING MODULATION OF RYANODINE RECEPTORS” (LES LABORATOIRES SERVIER, priority 2012, published 2013).
# Legend:
# RyR2 = details: WT and RyR2-S2808D+/+ mice; cited from earlier work
# RyR1 [1] = details: mdx mouse model; cited from earlier work
# RyR = details: cited from earlier work
# RyR1 [2] = biological target: T1, RyR1 (Mus musculus, UniProt E9PZQ0); details: extreme exercise, mice; cited from earlier work
# T1 construct: RyR1 from aged (24 months) mice is oxidized, cysteine-nitrosylated, and depleted of calstabin1; host or cells: mice (in vivo)
# T1 sequence (E9PZQ0 whole entry): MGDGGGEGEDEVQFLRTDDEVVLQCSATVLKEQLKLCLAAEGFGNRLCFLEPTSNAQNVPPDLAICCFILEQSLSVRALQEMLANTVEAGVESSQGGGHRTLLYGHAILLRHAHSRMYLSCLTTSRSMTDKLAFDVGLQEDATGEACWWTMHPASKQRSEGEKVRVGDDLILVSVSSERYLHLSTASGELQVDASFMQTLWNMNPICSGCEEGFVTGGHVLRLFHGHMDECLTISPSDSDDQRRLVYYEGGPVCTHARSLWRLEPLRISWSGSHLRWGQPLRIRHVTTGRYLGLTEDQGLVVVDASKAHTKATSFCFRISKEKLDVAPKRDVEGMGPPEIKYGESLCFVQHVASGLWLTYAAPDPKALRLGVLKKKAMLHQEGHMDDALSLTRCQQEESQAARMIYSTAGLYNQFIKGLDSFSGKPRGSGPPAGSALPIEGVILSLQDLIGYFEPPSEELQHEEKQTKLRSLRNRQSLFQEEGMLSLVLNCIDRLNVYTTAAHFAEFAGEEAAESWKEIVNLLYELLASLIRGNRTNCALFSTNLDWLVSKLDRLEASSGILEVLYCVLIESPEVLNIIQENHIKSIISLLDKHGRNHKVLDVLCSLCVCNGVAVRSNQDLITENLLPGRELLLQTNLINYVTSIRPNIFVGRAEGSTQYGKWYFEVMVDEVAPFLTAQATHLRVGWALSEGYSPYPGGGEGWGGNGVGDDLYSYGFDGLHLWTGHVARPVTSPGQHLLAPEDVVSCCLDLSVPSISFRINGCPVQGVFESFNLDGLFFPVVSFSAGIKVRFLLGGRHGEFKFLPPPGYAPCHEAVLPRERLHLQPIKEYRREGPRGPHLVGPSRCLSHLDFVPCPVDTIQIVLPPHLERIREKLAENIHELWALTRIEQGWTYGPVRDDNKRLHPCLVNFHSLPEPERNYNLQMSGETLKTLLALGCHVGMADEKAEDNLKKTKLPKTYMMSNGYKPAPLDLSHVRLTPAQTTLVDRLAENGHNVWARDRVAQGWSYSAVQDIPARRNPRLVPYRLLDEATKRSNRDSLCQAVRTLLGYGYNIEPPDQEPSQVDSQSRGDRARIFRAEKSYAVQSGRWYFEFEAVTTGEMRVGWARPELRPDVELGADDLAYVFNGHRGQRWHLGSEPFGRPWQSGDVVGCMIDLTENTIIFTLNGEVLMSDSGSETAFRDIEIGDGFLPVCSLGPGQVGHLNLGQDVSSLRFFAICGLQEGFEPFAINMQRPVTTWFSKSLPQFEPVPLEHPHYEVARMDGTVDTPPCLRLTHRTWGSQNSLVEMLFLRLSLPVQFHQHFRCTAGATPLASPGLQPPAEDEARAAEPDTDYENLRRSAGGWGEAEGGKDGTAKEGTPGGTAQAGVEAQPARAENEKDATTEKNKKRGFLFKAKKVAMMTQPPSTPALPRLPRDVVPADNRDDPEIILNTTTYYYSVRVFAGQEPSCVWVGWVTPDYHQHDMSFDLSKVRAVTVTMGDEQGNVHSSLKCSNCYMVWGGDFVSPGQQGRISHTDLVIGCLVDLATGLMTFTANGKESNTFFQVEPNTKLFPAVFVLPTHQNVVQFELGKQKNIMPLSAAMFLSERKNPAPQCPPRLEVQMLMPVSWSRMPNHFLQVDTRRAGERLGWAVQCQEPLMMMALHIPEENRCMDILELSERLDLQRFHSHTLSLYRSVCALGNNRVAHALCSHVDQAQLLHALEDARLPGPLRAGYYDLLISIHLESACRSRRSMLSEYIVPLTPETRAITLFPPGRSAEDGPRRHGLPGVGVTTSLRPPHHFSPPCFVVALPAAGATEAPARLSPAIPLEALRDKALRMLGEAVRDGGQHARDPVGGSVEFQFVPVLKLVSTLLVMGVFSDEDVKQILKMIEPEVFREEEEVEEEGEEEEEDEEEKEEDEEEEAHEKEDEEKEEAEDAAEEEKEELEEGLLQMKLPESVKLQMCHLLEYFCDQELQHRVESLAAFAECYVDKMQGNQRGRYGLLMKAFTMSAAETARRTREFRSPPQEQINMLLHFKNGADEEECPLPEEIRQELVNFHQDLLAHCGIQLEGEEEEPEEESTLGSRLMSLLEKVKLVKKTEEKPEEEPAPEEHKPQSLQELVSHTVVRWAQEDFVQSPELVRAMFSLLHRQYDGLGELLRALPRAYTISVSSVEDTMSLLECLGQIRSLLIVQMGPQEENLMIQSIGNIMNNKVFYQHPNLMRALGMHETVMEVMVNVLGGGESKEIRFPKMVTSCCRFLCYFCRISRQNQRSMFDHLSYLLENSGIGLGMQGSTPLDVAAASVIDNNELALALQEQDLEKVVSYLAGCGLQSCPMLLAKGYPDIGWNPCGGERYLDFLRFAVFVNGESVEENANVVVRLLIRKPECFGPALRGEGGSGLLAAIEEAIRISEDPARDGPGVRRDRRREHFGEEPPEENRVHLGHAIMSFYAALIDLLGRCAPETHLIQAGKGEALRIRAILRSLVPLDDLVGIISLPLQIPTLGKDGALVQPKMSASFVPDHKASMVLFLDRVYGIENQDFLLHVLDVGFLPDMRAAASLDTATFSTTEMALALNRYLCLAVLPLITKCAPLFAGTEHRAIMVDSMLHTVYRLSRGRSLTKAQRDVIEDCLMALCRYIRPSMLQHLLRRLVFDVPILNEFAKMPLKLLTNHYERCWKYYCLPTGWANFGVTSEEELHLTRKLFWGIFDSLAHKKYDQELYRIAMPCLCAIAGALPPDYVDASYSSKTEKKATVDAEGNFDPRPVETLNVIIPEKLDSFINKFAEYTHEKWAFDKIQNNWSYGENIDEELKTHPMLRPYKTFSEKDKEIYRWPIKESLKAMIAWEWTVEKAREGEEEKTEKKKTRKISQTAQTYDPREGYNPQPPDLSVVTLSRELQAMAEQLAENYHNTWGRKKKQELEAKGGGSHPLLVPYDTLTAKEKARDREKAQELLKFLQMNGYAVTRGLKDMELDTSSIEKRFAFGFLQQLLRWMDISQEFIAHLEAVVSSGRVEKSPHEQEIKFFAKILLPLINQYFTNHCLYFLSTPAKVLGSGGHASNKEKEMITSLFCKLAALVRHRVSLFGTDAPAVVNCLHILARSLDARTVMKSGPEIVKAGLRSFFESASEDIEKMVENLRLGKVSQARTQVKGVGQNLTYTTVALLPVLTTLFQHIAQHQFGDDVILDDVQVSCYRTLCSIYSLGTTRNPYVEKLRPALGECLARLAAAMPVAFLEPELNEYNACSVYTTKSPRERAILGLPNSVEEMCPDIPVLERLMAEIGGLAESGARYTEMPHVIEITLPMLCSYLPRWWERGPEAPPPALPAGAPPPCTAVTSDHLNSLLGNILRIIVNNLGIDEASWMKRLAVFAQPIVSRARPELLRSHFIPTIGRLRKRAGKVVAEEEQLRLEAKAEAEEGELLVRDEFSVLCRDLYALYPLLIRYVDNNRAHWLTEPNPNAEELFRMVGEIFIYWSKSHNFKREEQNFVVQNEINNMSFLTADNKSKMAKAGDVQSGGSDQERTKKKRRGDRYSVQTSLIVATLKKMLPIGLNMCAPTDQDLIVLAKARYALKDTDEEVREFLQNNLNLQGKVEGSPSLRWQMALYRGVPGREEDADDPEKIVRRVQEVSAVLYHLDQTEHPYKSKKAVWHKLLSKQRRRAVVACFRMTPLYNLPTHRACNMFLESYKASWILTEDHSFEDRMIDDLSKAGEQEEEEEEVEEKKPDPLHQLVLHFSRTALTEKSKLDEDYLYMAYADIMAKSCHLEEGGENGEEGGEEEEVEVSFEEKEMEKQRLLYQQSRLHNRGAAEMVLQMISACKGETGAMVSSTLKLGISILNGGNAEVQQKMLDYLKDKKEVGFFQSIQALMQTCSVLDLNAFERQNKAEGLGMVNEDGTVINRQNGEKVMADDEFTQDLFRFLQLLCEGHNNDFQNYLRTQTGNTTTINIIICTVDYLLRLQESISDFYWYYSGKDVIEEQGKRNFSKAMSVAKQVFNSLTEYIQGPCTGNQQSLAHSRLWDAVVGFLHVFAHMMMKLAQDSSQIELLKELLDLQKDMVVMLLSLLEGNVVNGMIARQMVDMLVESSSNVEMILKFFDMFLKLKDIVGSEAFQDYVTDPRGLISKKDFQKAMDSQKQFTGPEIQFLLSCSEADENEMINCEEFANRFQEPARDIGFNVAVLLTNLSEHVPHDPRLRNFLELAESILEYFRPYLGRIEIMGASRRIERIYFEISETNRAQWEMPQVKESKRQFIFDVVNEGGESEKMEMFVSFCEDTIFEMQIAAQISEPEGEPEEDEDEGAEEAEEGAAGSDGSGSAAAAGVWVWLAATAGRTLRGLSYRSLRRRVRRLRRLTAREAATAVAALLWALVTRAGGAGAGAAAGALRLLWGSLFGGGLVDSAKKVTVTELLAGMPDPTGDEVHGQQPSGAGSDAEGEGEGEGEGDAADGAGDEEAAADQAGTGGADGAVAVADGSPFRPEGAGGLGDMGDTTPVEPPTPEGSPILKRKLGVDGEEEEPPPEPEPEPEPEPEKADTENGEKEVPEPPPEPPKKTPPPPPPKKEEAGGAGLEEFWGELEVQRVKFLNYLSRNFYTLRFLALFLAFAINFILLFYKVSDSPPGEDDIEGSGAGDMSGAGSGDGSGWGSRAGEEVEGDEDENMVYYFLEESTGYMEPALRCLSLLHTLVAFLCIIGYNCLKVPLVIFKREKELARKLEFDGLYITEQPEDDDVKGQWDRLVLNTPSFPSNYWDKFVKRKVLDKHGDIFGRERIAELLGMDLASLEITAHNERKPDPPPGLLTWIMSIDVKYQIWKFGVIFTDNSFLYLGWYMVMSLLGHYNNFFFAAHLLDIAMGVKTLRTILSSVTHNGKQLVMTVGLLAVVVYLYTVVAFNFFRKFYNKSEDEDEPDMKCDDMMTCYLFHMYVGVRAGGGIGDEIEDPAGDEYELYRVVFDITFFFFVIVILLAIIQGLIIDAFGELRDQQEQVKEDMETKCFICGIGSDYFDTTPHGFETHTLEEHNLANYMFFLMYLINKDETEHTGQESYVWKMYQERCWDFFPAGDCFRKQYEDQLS
# T1 sequence (P26883 2-108 partner limits assumed): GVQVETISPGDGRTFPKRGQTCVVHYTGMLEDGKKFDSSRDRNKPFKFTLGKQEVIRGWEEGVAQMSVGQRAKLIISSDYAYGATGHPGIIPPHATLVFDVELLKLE
# RyR1 [3] = biological target: T1, RyR1; details: aged mice; cited from earlier work
smiles,measurement,setting,value
COc1ccc2c(c1)CN(C)CCS2 [Compound 5107],HF progression,RyR2,reduced
same,RyR2-mediated diastolic SR Ca2+ leak,RyR2,inhibited
same,indices of muscle function,RyR1 [1],improves
same,SR Ca2+ leak,RyR; after myocardial ischemia-reperfusion,inhibited
same,"ventricular arrhythmias, infarct size, and left ventricular remodeling",RyR; at 15 days after reperfusion,reduced
same,Ca2+ dependent neutral protease calpain activity and plasma creatinine kinase levels,RyR1 [2],reduced
same,depletion of calstabin1 from the RyR1 complex,RyR1 [2],prevented
same,binding of calstabin1 to RyR1,RyR1 [3],stabilized
same,intracellular calcium leak,RyR1 [3],reduced
same,reactive oxygen species (ROS),RyR1 [3],decreased
same,"tetanic Ca2+ release, muscle-specific force, and exercise capacity",RyR1 [3],enhanced
